Measured values published in patent publication US8637516B2 (IRM LLC, priority 2010, dated 2014).
Where two headings read alike, the source gives them in different places.

Columns and labels:
[1] = Rat PK (PO 10 mg/kg, IV 3 mg/Kg); assay type: in vivo; details: for F / clearance / half-life / Vd / AUC / Cmax: Rat; for F / AUC / Cmax: PO 10 mg/kg, MC/Tween 80 suspension; for F / clearance / half-life / Vd: IV 3 mg/Kg; for clearance / half-life / Vd / AUC / Cmax: in vivo; for Vd: read-out: Vss
parental Ba/F3 cells = test: Proliferation of parental (untransformed, wt) Ba/F3 cells (BAF3/WT); assay type: cell-based, murine; details: Mus musculus, Table 1, parental cells with IL3, 48 hours
How it was run: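 Parental Ba/F3 cells, maintained with mouse IL-3, were plated at 700 cells/well with compound (0.17 nM to 10 uM, 3-fold dilutions). After 48 h at 37 °C, proliferation was read by Bright-Glo luminescence.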

[2] = target: T1, Ba/F3 cells transformed with human Tel-TrkA (Homo sapiens, UniProt P04629); test: Proliferation of Ba/F3 cells transformed with human Tel-TrkA (Ba/F3 Tel-TrkA); assay type: cell-based
T1 construct: expressed in transfected cells; host or cells: Ba/F3 murine hematopoietic progenitor cells (luciferase expressing); the other entry of the earlier key: ETV6 (P41212, Transcription factor ETV6)
Source text: Compound dilutions were made in 384 well plates.
The emited luminiscence is quantified using ViewLux (PerkinElmer).

[3] = Table 1, 48 hours, Bright Glo luminescence, read-out: Ba/F3 Tel-TrkA

T1 sequence (P04629 510-796 limits assumed): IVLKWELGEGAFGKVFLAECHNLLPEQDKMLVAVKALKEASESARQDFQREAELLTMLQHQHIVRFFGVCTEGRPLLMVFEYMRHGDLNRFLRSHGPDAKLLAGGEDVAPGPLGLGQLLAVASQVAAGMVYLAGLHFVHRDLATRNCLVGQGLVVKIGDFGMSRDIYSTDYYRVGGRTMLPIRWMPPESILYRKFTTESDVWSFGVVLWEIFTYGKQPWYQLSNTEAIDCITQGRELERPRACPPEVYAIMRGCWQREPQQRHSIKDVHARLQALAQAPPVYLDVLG

Row | Compound | F [1] | clearance [1] | half-life [1] | Vd [1] | AUC [1] | Cmax [1] | AUC compared with compound #3 of WO2010/033941 ([1]; in words) | Cmax compared with compound #3 of WO2010/033941 ([1]; in words) | IC50 (parental Ba/F3 cells) | IC50 [2, 3] | IC50 ([2]; Table 2, read-out: Ba/F3_Te1-Trk-A)
1 | CC(=O)Nc1cnc2ccc(N3CCC[C@@H]3c3cc(F)ccc3F)nn12 [reference compound] | 1.5% | 79.2 mL/min/kg | 12 min | 1 L/kg | 0.087 µM·h | 61 nM |  |  |  |  | 
2 | NC(=O)c1cnc2ccc(N3C[C@@H](F)C[C@@H]3c3cc(F)ccc3F)nn12 [X-242] | 28.2% | 18.4 mL/min/kg | 74.4 min | 1.58 L/kg | 7.09 µM·h | 1730 nM | significant and unexpected increases | significant and unexpected increases | 2.45 µM | 0.0005 µM | 0.0005 µM
3 | O=C(C=Cc1cccc(F)c1)c1cnc2ccc(N3CCC[C@@H]3c3cccc(F)c3)nn12 [X-126, (R)-3-(3-fluorophenyl)-1-(6-(2-(3-fluorophenyl)pyrrolidin-1-yl)imidazo[1,2-b]pyridazin-3-yl)prop-2-en-1-one] |  |  |  |  |  |  |  |  | 1.09 µM | 0.022 µM | 
4 | CC(C)OC(=O)Nc1cnc2ccc(N3CCC[C@@H]3c3cccc(F)c3)nn12 [X-234] |  |  |  |  |  |  |  |  | > 10 µM | 0.449 µM | 
5 | CC(=O)N1CCC(NC(=O)c2cnc3ccc(N4CCC[C@@H]4c4cccc(F)c4)nn23)CC1 [X-67] |  |  |  |  |  |  |  |  | > 10 µM | 0.081 µM | 
6 | CC(=O)OCC(=O)N1CCC(NC(=O)c2cnc3ccc(N4CCC[C@@H]4c4cccc(F)c4)nn23)CC1 [X-73, (R)-2-(4-(6-(2-(3-fluorophenyl)pyrrolidin-1-yl)imidazo[1,2-b]pyridazine-3-carboxamido)piperidin-1-yl)-2-oxoethyl acetate] |  |  |  |  |  |  |  |  | > 10 µM | 0.109 µM | 
7 | O=C(N[C@@H]1CCOC1=O)c1cnc2ccc(N3CCC[C@@H]3c3cccc(F)c3)nn12 [X-100] |  |  |  |  |  |  |  |  | > 10 µM | 0.027 µM | 
